No end group written: not given here.

The conditions of series [1]: TA1 0.3-1.2 mg/kg/dose i.p. with Fluvirin.
For series [2] the following is noted: TA1 0.28 or 0.57 mg/kg s.c. with vaccine.
Description: The vaccine (either Agrippal influPozzi seasonal vaccine, non-adjuvanted, or Fluad, MF-59 adjuvanted) was administered via intramuscular injection to the right leg at a full human dose of 0.5 mL. TA1 (0.285 or 0.570 mg/kg/dose) was administered by the subcutaneous route at a dose volume that, using a scaling factor for ferret/human dosing, corresponding to approximate human doses of 3.2 or 6.4 mg/kg. Animals were observed twice daily for mortality, general health, and both local and systemic signs of toxicity and illness as well as behavior under the responsibility of a professional veterinarian. Body weights were recorded prior to dosing only.
The conditions of series [3]: cited from earlier work.
The conditions of series [4]: cited from earlier work. The source holds these as a separate data set.
For series [5] the following is noted: doses as high as 800 times the recommended human dose; cited from earlier work.

On to “Ac-SDAAVDTSSEITTKDLKEKKEVVEEAEN [TA1, (N-acetyl)-Ser-Asp-Ala-Ala-Val-Asp-Thr-Ser-Ser-Glu-11e-Thr-Thr-Lys-Asp-Leu-Lys-Glu-Lys-Lys-Glu-Val-Val-Glu-Glu-Ala-Glu-Asn-OH]”, for which, in series [1], the “clinical/cageside observations and body weight effects” value was “no test article-related clinical/cageside observations or body weight effects”; the survival entry was “All animals survived until scheduled termination”. Besides, the “safety and tolerability, cage-side observations” value in series [2] was “safe and well-tolerated”. Moreover, in series [3] (TA1 combined with other agents such as interferon and chemotherapy), the “worsening of side effects in combination” value is given as “Nor has there been any worsening of side effects”. Also, the drug-related side effects result in series [3] (more than 3,000 patients (adults, elderly, children; hepatitis B and C, primary immunodeficiency, cancers)) is reported as “virtually no drug-related side effects”. In series [4] (after injection of 3.2 mg of TA1 (about 40 μg/kg)), the Peak plasma levels result is on record as “approximately 100 ng/ml”. Further, in series [4] (in vivo), the “half-life of TA1 in the circulation” value is reported as “about 2 hours”. Besides, the plasma half-life result in series [4] (subcutaneously injected TA1) is “about two”. Besides, in series [5], the adverse clinical signs result is listed as “no evidence of adverse clinical signs”.

Values taken from patent US20140213506A1, “THYMOSIN ALPHA PEPTIDE FOR PREVENTING, REDUCING THE SEVERITY OF, AND TREATING INFECTION” (priority 2011, published 2014).
